Test results published in ChEMBL document CHEMBL5518183, “Broad-spectrum antiviral strategy: Host-targeting antivirals against emerging and re-emerging viruses” (Eur J Med Chem, 2024).
Converted amounts (≈) assume the structure as drawn.

Experiments:
[1] = test system: H9; test: Antitumor activity against human H9 cells assessed as cell growth inhibition; format: functional, cell-based
[2] = test system: Human immunodeficiency virus 1; test: Antiviral activity against HIV1 infected in H9 cells assessed as reduction in viral replication; format: functional, organism-based; details: Human immunodeficiency virus 1, H9
[3] = test system: SARS-CoV-2; test: Antiviral activity against SARS-CoV-2 infected in African green monkey Vero E6 cells assessed as reduction in viral replication incubated for 24 hrs by Immunofluorescence assay; format: functional, organism-based; details: Severe acute respiratory syndrome coronavirus 2, Vero C1008, 24 h
[4] = biological target: Virion infectivity factor (Human immunodeficiency virus type 1 group M subtype B (isolate NY5)(HIV-1), UniProt P12504); test: Inhibition of HIV1 Vif; parameters: species or system Human immunodeficiency virus 1
[5] = test system: Caco-2; test: Cytotoxicity against human Caco-2 cells assessed as reduction in cell growth measured fpr 48 hrs by MTT assay; format: functional
[6] = test system: SARS-CoV-2; test: Antiviral activity against SARS-CoV-2 infected in African green monkey Vero E6 cells assessed as inhibition of viral replication; format: functional, organism-based; details: Severe acute respiratory syndrome coronavirus 2, Vero C1008
[7] = test system: SARS-CoV-2; test: Antiviral activity against SARS-CoV-2 infected in BALB/c mouse assessed as survival rate at 10 uM measured after 3 to 5 days; format: functional, Severe acute respiratory syndrome coronavirus 2; details: time 3-5 day
[8] = Cytotoxicity against African green monkey Vero cells assessed as reduction in cell viability measured after 72 hrs by MTT assay; format: toxicity, cell-based; details: chlorocebus sabaeus
[9] = test system: Ebolavirus; test: Antiviral activity against Ebola virus infected in African green monkey Vero cells incubated for 3 days by immunofocus assay; format: functional, organism-based; details: Orthoebolavirus, 72 h
[10] = test system: Hepatitis B virus; test: Antiviral activity against HBV genotype A infected in human HepG2 cells assessed as inhibition of viral replication; format: functional, organism-based
[11] = test system: Human immunodeficiency virus 1; test: Antiviral activity against HIV-1 infected in human MT4 cells assessed as reduction in virus induced cytopathic effect incubated for 5 days by Cell Titer Glo luminescent assay; format: functional, organism-based; details: Human immunodeficiency virus 1, MT4, 120 h
[12] = test system: SARS-CoV-2; test: Antiviral activity against SARS-CoV-2 infected in African green monkey Vero cells assessed as reduction in viral replication incubated for 24 hrs by Immunofluorescence assay; format: functional, organism-based; details: Severe acute respiratory syndrome coronavirus 2, Vero
[13] = test system: Human immunodeficiency virus 1; test: Antiviral activity against HIV1 TC-1 infected in human PBMC assessed as inhibition of viral replication; format: functional, organism-based; details: Human immunodeficiency virus 1, TC-1, PBMC
[14] = test system: Dengue virus; test: Antiviral activity against Dengue virus assessed as inhibition of viral replication; format: functional, organism-based
[15] = test system: West Nile virus; test: Antiviral activity against West Nile virus infected in human A549 cells assessed as reduction in virus replication incubated for 72 hrs by MTS assay; format: functional, organism-based; details: A549, 72 h
[16] = test system: Hepatitis C virus; test: Antiviral activity against HCV infected in human Huh-7 cells assessed as reduction in viral infection incubated for 72 hrs by qRT-PCR analysis; format: functional, organism-based, Hepacivirus hominis; details: Huh-7, 72 h
[17] = test system: Hepatitis C virus; test: Antiviral activity against HCV infected in human Huh-7 cells assessed as reduction in viral infection; format: functional, organism-based, Hepacivirus hominis
[18] = test system: Middle East respiratory syndrome-related coronavirus; test: Antiviral activity against MERS-CoV infected in human MRC5 cells assessed as reduction in viral replication measured after 48 hrs by qRT-PCR assay; format: functional, organism-based; details: MRC5, 48 h
[19] = test system: Human coronavirus 229E; test: Antiviral activity against HCoV-229E infected in human MRC5 cells incubated for 3 days measured by crystal violet staining based plaque counting analysis; format: functional, organism-based; details: MRC5, 72 h

Chain of Virion infectivity factor (P12504 1-150 limits assumed): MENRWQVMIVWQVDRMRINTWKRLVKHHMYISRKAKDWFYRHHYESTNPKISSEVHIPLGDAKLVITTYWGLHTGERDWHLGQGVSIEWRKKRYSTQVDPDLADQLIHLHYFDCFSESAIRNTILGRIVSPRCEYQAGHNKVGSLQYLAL
Chain of Virion infectivity factor (P12504 151-192 limits assumed): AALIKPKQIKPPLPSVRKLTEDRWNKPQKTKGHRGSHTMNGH

Compound `CCN(CC)S(=O)(=O)c1ccc(OC)c(NC(=O)Cc2ccccc2[N+](=O)[O-])c1` has an IC50 [1] greater than 100000 nM and an EC50 [2] of 25000 nM.

Work on `COc1cc2c(c(OC)n1)[C@]1(O)[C@H](O)[C@H](CN(C)C)[C@@H](c3ccccc3)[C@]1(c1ccc(C#N)cc1)O2` [ZOTATIFIN] yielded an EC50 [3] of 37 nM.

Work on `CCOC(=O)c1cc(C(=O)c2ccc3ccccc3c2)n2ccc(C(=O)c3ccncc3)cc12` yielded an IC50 [4] of 11000 nM.

For `Cc1c(-c2ccc(-c3ccccc3F)cc2)nc2ccc(F)cc2c1C(=O)O` [BREQUINAR], the CC50 [5] was 231000 nM and the EC50 [6] was 123 nM.

`CN(C)C(=O)COC(=O)Cc1ccc(OC(=O)c2ccc(NC(=N)N)cc2)cc1.CS(=O)(=O)O` [CAMOSTAT MESILATE] gave an Activity [7] of 60%.

In the case of `CCCCCN(CC)c1ccc(Oc2ccc(-c3c(C)c(=O)c4c(F)cccc4n3C)cc2F)cc1`, the CC50 at 72 h [8] is reported as 10700 nM and the IC50 [9] is reported as 7 nM.

`C/C=C/C[C@@H](C)[C@@H](O)[C@H]1C(=O)N[C@@H](CC)C(=O)N(C)CC(=O)N(C)[C@@H](CC(C)C)C(=O)N[C@@H](C(C)C)C(=O)N(C)[C@@H](CC(C)C)C(=O)N[C@@H](C)C(=O)N[C@H](C)C(=O)N(C)[C@@H](CC(C)C)C(=O)N(C)[C@@H](CC(C)C)C(=O)N(C)[C@@H](C(C)C)C(=O)N1C` [CYCLOSPORINE] showed an IC50 [10] of 5780 nM.

Work on `Oc1ccccc1/C=N/Nc1nc(Nc2ccc(F)cc2)nc(Nc2ccc(F)cc2)n1` yielded an EC50 [11] of 2 nM.

`CC[C@H](C)[C@H]1NC(=O)[C@@H](NC(=O)[C@@H](CC(C)C)N(C)C(=O)[C@@H]2CCCN2C(=O)C(C)=O)[C@@H](C)OC(=O)[C@H](Cc2ccc(OC)cc2)N(C)C(=O)[C@@H]2CCCN2C(=O)[C@H](CC(C)C)NC(=O)[C@@H](C)C(=O)[C@H](C(C)C)OC(=O)C[C@@H]1O` [PLITIDEPSIN] gave an EC50 [12] of 0.7 nM.

For `CCCCc1cn(-c2ccc(NC(=O)Nc3ccccc3C)cc2)nn1`, the EC50 [13] was 970 nM, the EC50 [14] was 970 nM and the EC50 [15] was 970 nM. It also gave an EC50 [16] of 970 nM.

Work on `C/C=C/C[C@@H](C)[C@@H](O)[C@H]1C(=O)N[C@@H](CC)C(=O)N(C)C(C)C(=O)N(CC)[C@@H](CC(C)C)C(=O)N[C@@H](C(C)C)C(=O)N(C)[C@@H](CC(C)C)C(=O)N[C@@H](C)C(=O)N[C@H](C)C(=O)N(C)[C@@H](CC(C)C)C(=O)N(C)[C@@H](CC(C)C)C(=O)N(C)[C@@H](C(C)C)C(=O)N1C` (stereo not given in full) yielded an EC50 [17] of 0.27 µg/mL (≈ 0.219 µM).

`CONC(=O)[C@H]1[C@@H](O)[C@@]2(O)c3c(OC)cc(OC)cc3O[C@@]2(c2ccc(OC)cc2)[C@@H]1c1ccccc1` gave an EC50 [3] of 1.82 nM.

With `COC(=O)[C@H]1[C@@H](O)[C@@]2(O)c3c(OC)cc(O[C@@H]4O[C@@H]([C@H](O)CO)CO[C@H]4OC)cc3O[C@@]2(c2ccc(OC)cc2)[C@@H]1c1ccccc1` [SILVESTROL] the EC50 [18] was 1.3 nM and the EC50 [19] was 3 nM.
